Data published in patent publication US20110082205A1, “Docosahexaenoic Acid Gel Caps” (priority 2009, published 2011).
Marks after values point to notes of the source that are not given here.

Key:
male Wister rats [1] = experiment: Effect on triglyceride levels in high fructose diet rats; type: in vivo, Wistar rats; conditions: for Triglycerides % of control: actual means; for Serum Triglycerides LSMEAN: least squares mean; for Triglycerides: oral gavage, mean ± SD
From the text: The effect of the DHA ethyl ester (DHA-EE) produced according to the method of Example 2 on triglyceride levels was investigated using male Wister rats. The DHA-EE used in this example contained DHA at about 93.6% (wt/wt) of the total fatty acid content of the dosage form. The effect of purified DHA-EE was compared to two different DHA-containing products: DHASCO-T® (Martek Bioscience Corporation, Columbia, Md.) and Lovaza® (Reliant Pharmaceuticals, Inc., Durham, N.C.). DHASCO-T® comprises approximately 45% DHA and 55% other fatty acids (with substantially no EPA). Lovaza® comprises approximately 41.7% DHA ethyl ester, 51.7% EPA ethyl ester, and 6.4% other fatty acids. The vehicle control comprised corn oil. 84 Wistar rats were randomized into 7 groups of 12 rats each. Each rat was administered orally a high fructose diet for 4-5 weeks to raise triglyceride levels. After 4-5 weeks, rats with a triglyceride level <300 mg/dL were excluded. Then each rat was administered either (a) a vehicle control, (b) DHA ethyl ester (0.6 g/kg/day, 1.3 g/kg/day, 2.5 g/kg/day, or 5.0 g/kg/day), (c) DHASCO-T (5.0 g/kg/day), or (d) Lovaza (5.0 g/kg/day) for 28 days by oral gavage. Diets were controlled for calories, nutrients and levels of vitamin E. Triglyceride levels of the rats were measured at 14 days and 28 days. Triglyceride values shown are averages for each treatment group, presented as actual mean values.
The triglyceride results presented below in Table 8 are calculated from the same data set as in Table 7. Triglyceride values shown in Table 8 are averages for each treatment group, presented as least squares mean values.

male Wister rats [2] = experiment: Effect on total cholesterol levels in rats; type: in vivo, Wistar rats; conditions: for Serum Cholesterol % of control: actual means; for Serum Cholesterol LSMEAN: least squares mean; for Serum Cholesterol: mean ± SD
Protocol: The effect of the DHA ethyl ester of Example 2 on cholesterol levels was investigated using male Wister rats, and was compared to DHASCO-T® and Lovaza®. The rats were administered either (a) a vehicle control, (b) DHA ethyl ester (0.6 g/kg/day, 1.3 g/kg/day, 2.5 g/kg/day, or 5.0 g/kg/day), (c) DHASCO-T (5.0 g/kg/day), or (d) Lovaza (5.0 g/kg/day) for 28 days. Cholesterol levels, i.e., total cholesterol, of the rats were measured at 14 days and 28 days. Total cholesterol values shown are averages for each treatment group, i.e., actual mean values.
The cholesterol results presented below in Table 10 are calculated from the same data set as in Table 9. Cholesterol level values shown in Table 10 are averages for each treatment group, presented as least squares mean values.

[3] = rat, in vivo
From the text: The plasma DHA fatty acid area percent and plasma EPA fatty acid area percent were determine in the rats at day 1 and day 29 (post necropsy).

[4] = day 14, 0.6 g/kg/day fatty acid
[5] = day 14, 1.3 g/kg/day fatty acid
[6] = day 14, 2.5 g/kg/day fatty acid
[7] = day 14, 5.0 g/kg/day fatty acid
[8] = day 28, 0.6 g/kg/day fatty acid
[9] = day 28, 1.3 g/kg/day fatty acid
[10] = day 28, 2.5 g/kg/day fatty acid
[11] = day 28, 5.0 g/kg/day fatty acid

CC/C=C\C/C=C\C/C=C\C/C=C\C/C=C\C/C=C\CCC(=O)OCC [DHA-EE, ethyl docosahexaenoate]
triglyceride levels (male Wister rats [1]; 14 days, lowest dosage level (0.6 g/kg/day)): reduces triglyceride levels
Serum Triglycerides % of control (LSMEAN) (male Wister rats [1]; [4]): 65%
Triglycerides % of control (male Wister rats [1]; [4]): 67%
Serum Triglycerides LSMEAN (male Wister rats [1]; [4]): 168.4† mg/dL
Triglycerides (male Wister rats [1]; [4]): 176.5 ± 96.4 mg/dL
Serum Triglycerides % of control (LSMEAN) (male Wister rats [1]; [5]): 67%
Triglycerides % of control (male Wister rats [1]; [5]): 66%
Serum Triglycerides LSMEAN (male Wister rats [1]; [5]): 173.6† mg/dL
Triglycerides (male Wister rats [1]; [5]): 175.2 ± 50.6 mg/dL
Serum Triglycerides % of control (LSMEAN) (male Wister rats [1]; [6]): 47%
Triglycerides % of control (male Wister rats [1]; [6]): 44%
Serum Triglycerides LSMEAN (male Wister rats [1]; [6]): 120.2† mg/dL
Triglycerides (male Wister rats [1]; [6]): 115.5 ± 60.9 mg/dL
Serum Triglycerides % of control (LSMEAN) (male Wister rats [1]; [7]): 43%
Triglycerides % of control (male Wister rats [1]; [7]): 37%
Serum Triglycerides LSMEAN (male Wister rats [1]; [7]): 110.7† mg/dL
Triglycerides (male Wister rats [1]; [7]): 97.6 ± 47.8 mg/dL
triglyceride levels vs control (male Wister rats [1]; day 28, 0.6 g DHA-EE, DHASCO-T 5.0 g/kg/day): not significantly lower than control
Serum Triglycerides % of control (LSMEAN) (male Wister rats [1]; [8]): 93%
Triglycerides % of control (male Wister rats [1]; [8]): 95%
Serum Triglycerides LSMEAN (male Wister rats [1]; [8]): 174.5 mg/dL
Triglycerides (male Wister rats [1]; [8]): 182.7 ± 86.9 mg/dL
Serum Triglycerides % of control (LSMEAN) (male Wister rats [1]; [9]): 60%
Triglycerides % of control (male Wister rats [1]; [9]): 60%
Serum Triglycerides LSMEAN (male Wister rats [1]; [9]): 113.1† mg/dL
Triglycerides (male Wister rats [1]; [9]): 114.7 ± 37.2 mg/dL
Serum Triglycerides % of control (LSMEAN) (male Wister rats [1]; [10]): 60%
Triglycerides % of control (male Wister rats [1]; [10]): 56%
Serum Triglycerides LSMEAN (male Wister rats [1]; [10]): 112.6† mg/dL
Triglycerides (male Wister rats [1]; [10]): 107.9 ± 58.4 mg/dL
Serum Triglycerides % of control (LSMEAN) (male Wister rats [1]; [11]): 47%
Triglycerides % of control (male Wister rats [1]; [11]): 41%
Serum Triglycerides LSMEAN (male Wister rats [1]; [11]): 87.6† mg/dL
Triglycerides (male Wister rats [1]; [11]): 78.9 ± 46.5 mg/dL
cholesterol levels (male Wister rats [2]; by 14 days, lowest dosage level): reduces cholesterol levels
Serum Cholesterol % of control (LSMEAN) (male Wister rats [2]; [4]): 80%
Serum Cholesterol % of control (male Wister rats [2]; [4]): 79%
Serum Cholesterol LSMEAN (male Wister rats [2]; [4]): 72.4 mg/dL
Serum Cholesterol (male Wister rats [2]; [4]): 72.2 ± 17.7 mg/dL
Serum Cholesterol % of control (LSMEAN) (male Wister rats [2]; [5]): 82%
Serum Cholesterol % of control (male Wister rats [2]; [5]): 82%
Serum Cholesterol LSMEAN (male Wister rats [2]; [5]): 74.6 mg/dL
Serum Cholesterol (male Wister rats [2]; [5]): 75.0 ± 24.0 mg/dL
Serum Cholesterol % of control (LSMEAN) (male Wister rats [2]; [6]): 85%
Serum Cholesterol % of control (male Wister rats [2]; [6]): 85%
Serum Cholesterol LSMEAN (male Wister rats [2]; [6]): 77.4 mg/dL
Serum Cholesterol (male Wister rats [2]; [6]): 77.6 ± 23.1 mg/dL
Serum Cholesterol % of control (LSMEAN) (male Wister rats [2]; [7]): 75%
Serum Cholesterol % of control (male Wister rats [2]; [7]): 74%
Serum Cholesterol LSMEAN (male Wister rats [2]; [7]): 67.8 mg/dL
Serum Cholesterol (male Wister rats [2]; [7]): 67.1 ± 17.9 mg/dL
Serum Cholesterol % of control (LSMEAN) (male Wister rats [2]; [8]): 80%
Serum Cholesterol % of control (male Wister rats [2]; [8]): 80%
Serum Cholesterol LSMEAN (male Wister rats [2]; [8]): 80.6 mg/dL
Serum Cholesterol (male Wister rats [2]; [8]): 80.3 ± 21.8 mg/dL
Serum Cholesterol % of control (LSMEAN) (male Wister rats [2]; [9]): 62%
Serum Cholesterol % of control (male Wister rats [2]; [9]): 62%
Serum Cholesterol LSMEAN (male Wister rats [2]; [9]): 61.6† mg/dL
Serum Cholesterol (male Wister rats [2]; [9]): 62.0 ± 16.0 mg/dL
Serum Cholesterol % of control (LSMEAN) (male Wister rats [2]; [10]): 72%
Serum Cholesterol % of control (male Wister rats [2]; [10]): 72%
Serum Cholesterol LSMEAN (male Wister rats [2]; [10]): 71.3† mg/dL
Serum Cholesterol (male Wister rats [2]; [10]): 71.5 ± 17.8 mg/dL
Serum Cholesterol % of control (LSMEAN) (male Wister rats [2]; [11]): 60%
Serum Cholesterol % of control (male Wister rats [2]; [11]): 60%
Serum Cholesterol LSMEAN (male Wister rats [2]; [11]): 60.9† mg/dL
Serum Cholesterol (male Wister rats [2]; [11]): 60.2 ± 19.3 mg/dL
plasma DHA fatty acid area percent [3]: correlates with increasing dosing of DHA
plasma EPA fatty acid area percent [3]: does not increase in rats administered DHA-EE or DHASCO® to the same extent that it is increased in Lovaza®
